Laboratory results reported in patent US9757400B2, “Peptidomimetic inhibitors of post-proline cleaving enzymes” (Trustees of Tufts College, priority 2001, dated 2017).

Tests used:
zucker obese rats = assay: Oral glucose tolerance test (oral glucose challenge) in zucker rats; format: in vivo, rat; settings: oral 0.035 mg/kg or 0.35 mg/kg, oral glucose tolerance test within an hour, saline control
Experimental: In these “acute” experiments zucker obese and zucker lean rats were orally administered either 0.035 mg/kg (low dose) or 0.35 mg/kg (high dose) of cyclohexyl-gly boro ala and then subjected to an oral glucose tolerance test within an hour. Each set of experiments was also performed using saline as a control.

DPPIV [1] = biological target: DPPIV (Homo sapiens, UniProt P27487); assay: Inhibitor inactivation at pH 8 (time course, DPPIV inhibition read-out); format: biochemical; settings: pre-incubated at pH 8 (7.5-8) for 0, 60, 120, 180 minutes; compared with His-bAla, Ala-bAla, Phg-bAla
Sequence of DPPIV (Homo sapiens, UniProt P27487) (P27487 whole entry, species assumed): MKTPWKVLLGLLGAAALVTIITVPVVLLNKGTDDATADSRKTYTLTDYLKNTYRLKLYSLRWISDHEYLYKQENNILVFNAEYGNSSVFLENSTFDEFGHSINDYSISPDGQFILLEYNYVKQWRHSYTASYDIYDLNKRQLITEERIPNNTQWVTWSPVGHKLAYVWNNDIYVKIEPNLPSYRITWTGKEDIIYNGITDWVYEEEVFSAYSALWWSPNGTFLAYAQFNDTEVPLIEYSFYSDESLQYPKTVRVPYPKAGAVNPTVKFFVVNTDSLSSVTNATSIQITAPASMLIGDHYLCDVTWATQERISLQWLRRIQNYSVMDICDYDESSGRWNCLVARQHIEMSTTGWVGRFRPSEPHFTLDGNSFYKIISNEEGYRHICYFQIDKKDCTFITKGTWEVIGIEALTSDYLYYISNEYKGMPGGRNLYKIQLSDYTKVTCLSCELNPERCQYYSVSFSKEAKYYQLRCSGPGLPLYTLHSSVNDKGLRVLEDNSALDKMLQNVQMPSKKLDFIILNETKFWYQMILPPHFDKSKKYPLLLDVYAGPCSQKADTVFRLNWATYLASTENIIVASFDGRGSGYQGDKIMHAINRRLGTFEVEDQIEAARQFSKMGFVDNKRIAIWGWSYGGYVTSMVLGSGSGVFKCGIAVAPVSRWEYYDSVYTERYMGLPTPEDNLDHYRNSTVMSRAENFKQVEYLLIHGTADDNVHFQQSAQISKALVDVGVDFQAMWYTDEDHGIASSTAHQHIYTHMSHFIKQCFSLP
Experimental: In this experiment stock solutions of inhibitors (His-bAla, Ala-bAla, Phg-bAla and Cyclohexylglycine-bAla) were prepared at pH 1-2. These stock solutions were pre-incubated at pH 8 as follows: first, 1:10 dilutions into a buffer (0.1 M HEPES pH 8, 0.14 M NaCl) were performed; secondly, the pH was measured after dilution and varied for different inhibitors between 7.5 and 8; and thirdly, incubations at this pH were performed for 0, 60, 120, 180 minutes. Following incubation, 1:10 serial dilutions of inhibitors in buffer and 1:10 dilution of inhibitors into Enzyme (DPPIV) in buffer were made. The inhibitors were pre-incubated with enzyme for 10 minutes to account for slow binding and substrate (H-Ala-Pro-paranitoranalide) was added at a concentration of approx.=KM (17 μM). Absorbances at 410 nm were recorded for all inhibitors after 30 minutes.

DPPIV [2] = biological target: T1, DPPIV (Rattus norvegicus, UniProt P14740); assay: DPPIV assays on serum samples from treated rats; format: in vivo; settings: 1 hour after treatment versus before
T1 construct: from tissue; host or cells: rat serum
T1 sequence (P14740 37-767 limits assumed): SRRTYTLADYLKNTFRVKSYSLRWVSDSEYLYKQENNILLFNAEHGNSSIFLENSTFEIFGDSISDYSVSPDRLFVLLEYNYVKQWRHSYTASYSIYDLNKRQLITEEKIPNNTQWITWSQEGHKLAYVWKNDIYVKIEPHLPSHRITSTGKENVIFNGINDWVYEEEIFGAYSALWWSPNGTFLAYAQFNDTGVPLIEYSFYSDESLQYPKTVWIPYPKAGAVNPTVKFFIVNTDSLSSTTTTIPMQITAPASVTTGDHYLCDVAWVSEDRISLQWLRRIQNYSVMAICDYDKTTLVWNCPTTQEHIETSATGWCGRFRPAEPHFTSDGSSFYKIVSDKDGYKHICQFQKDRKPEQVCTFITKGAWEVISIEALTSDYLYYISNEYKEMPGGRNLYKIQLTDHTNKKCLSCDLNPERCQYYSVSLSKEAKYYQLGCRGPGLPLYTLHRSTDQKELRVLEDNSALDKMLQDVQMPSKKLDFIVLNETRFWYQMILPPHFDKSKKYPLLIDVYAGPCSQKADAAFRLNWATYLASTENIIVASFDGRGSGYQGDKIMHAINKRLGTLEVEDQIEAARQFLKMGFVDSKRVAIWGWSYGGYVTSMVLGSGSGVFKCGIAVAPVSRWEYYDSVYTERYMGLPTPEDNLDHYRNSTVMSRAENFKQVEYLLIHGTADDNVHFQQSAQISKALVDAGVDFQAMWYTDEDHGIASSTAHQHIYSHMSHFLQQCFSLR
Experimental: Four rats were used in this experiment: two females (#3 and #9) and two males (#10 and #11). Blood and plasma samples were collected from rats 1 hour after being treated with Cyclohexylglycine-boroAla. The collected serum samples were evaluated for DPPIV activity of Cyclohexylglycine-boroAla as follows: • 2 mg of Ala-Pro-paranitroanalide (substrate) was dissolved in 20 ml 0.1 M HEPES pH 8, 0.14 M NaCl (buffer). • Serum samples were diluted into substrate solution in the wells of a microtiter plate. For each sample, 10 uL of serum was diluted into 150 μL of substrate. • A reading of the A410 in each well was recorded immediately after the dilution of serum into substrate, and again after approximately 1 hour. The time of data acquisition for each reading is recorded in the data file by the microplate reader software.
The rate of absorbance change was obtained by subtracting the first reading from the second and dividing by the reaction time to give DeltaA410/hr. The DPPIV activity was plotted in units of DeltaA410 hr^−1 μL^−1.

[3] = pH around neutral, due to cyclization, inventors' previous work; cited from earlier work
soluble DPIV = soluble DPIV (Homo sapiens, UniProt P27487); settings: inventors' previous work; cited from earlier work
Sequence of soluble DPIV (P27487 39-766 limits assumed): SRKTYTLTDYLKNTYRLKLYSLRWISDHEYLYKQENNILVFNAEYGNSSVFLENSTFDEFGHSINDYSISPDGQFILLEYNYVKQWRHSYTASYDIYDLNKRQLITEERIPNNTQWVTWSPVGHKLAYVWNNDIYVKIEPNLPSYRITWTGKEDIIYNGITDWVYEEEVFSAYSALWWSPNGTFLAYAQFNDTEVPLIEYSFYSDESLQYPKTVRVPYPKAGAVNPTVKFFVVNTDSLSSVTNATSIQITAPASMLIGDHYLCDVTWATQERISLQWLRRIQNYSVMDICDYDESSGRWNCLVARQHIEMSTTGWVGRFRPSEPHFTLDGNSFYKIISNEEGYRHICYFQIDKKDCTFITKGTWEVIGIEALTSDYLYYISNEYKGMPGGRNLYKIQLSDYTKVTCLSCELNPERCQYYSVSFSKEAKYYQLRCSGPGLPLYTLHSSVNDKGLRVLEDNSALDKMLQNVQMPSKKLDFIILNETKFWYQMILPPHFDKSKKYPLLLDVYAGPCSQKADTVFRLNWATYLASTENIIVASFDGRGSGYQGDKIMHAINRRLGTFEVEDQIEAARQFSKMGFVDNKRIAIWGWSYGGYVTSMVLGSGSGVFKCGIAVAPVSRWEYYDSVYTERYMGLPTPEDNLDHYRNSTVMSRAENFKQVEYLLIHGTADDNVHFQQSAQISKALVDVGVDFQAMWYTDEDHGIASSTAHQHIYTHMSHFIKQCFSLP

[4] = Cyclization equilibrium, ratio of [cyclic]:[open] forms; format: physicochemical; settings: at equilibrium at pH 7.0
Source text: In this example, Xaa-boro-Ala analogs containing bulky R substituent will be constructed to prevent cyclization and increase biological activity. […] The open, active, inhibitory chain species is favored at low pH while the cyclized structure is favored at high pH. Also, the reaction is fully reversible: the open chain becomes predominate at low pH. The open chain to cyclic species reaction involves a trans to cis isomerization of the proline and the formation of a new N—B bond. […] This means that less than 1% Pro-boroPro and less than 0.1% of Val-boroPro exists as the open chain, inhibitory species, at equilibrium at pH 7.0.
One feature of the present invention relates to the equilibrium constant for cyclization. […] In addition, the cis-trans isomerization rate, and therefore the rates of cyclization and uncyclization, are also much faster for compounds of the present invention. This feature is attributed by the inventors to a bulky substituent effect, e.g. where R in FIG. 8 represents a cyclohexyl.

CC(NC(=O)C(N)C1CCCCC1)B(O)O (centres unmarked) [Cyclohexylglycine-boroAla, Cyclohexylglycine boroAla]
blood sugar in oral glucose challenge after oral administration (zucker obese rats): orally active and clearly lowers blood sugar | pH-time dependant inhibition (inactivation at pH 8) (DPPIV [1]): does not show significant pH-time dependant inhibition | DPPIV enzyme activity in serum (DPPIV [2]): significantly decreased

CC(N)C(=O)N1CCCC1B(O)O [L-Ala-D,L-boroPro]
loss of inhibitory activity in aqueous solution [3]: lost some of their inhibitory activity rapidly

O=C(C1CCCN1)N1CCCC1B(O)O [L-Pro-D,L-boroPro]
inhibition of the catalytic activity of soluble DPIV (soluble DPIV): potent inhibitors | loss of inhibitory activity in aqueous solution [3]: lost some of their inhibitory activity rapidly

O=C(C1CCCN1)N1CCCC1B(O)O (centres unmarked) [Pro-boroPro]
fraction existing as the open chain, inhibitory species [4]: less than 1%

CC(C)[C@H](N)C(=O)N1CCC[C@H]1B(O)O [Val-boroPro]
fraction existing as the open chain, inhibitory species [4]: less than 0.1%
